Test results published in ChEMBL document CHEMBL1151634, “Phytochemical and biological screening of Saudi medicinal plants, Part 6. Isolation of 2 alpha-hydroxyalantolactone the antileukemic principle of Francoeuria crispa” (1984).
Values after ≈ are worked out from the molar mass of the structure shown.

Assays:
Format in all cases: functional
[1] = Cytotoxicity against mouse 9PS cells
[2] = tested on: Staphylococcus aureus; test: Antibacterial activity against Staphylococcus aureus NCTC 6571 after overnight incubation by tube dilution method
[3] = tested on: P388; test: In vivo cytotoxicity against mouse P388 cells at 75 mg/kg relative to control
[4] = Cytotoxicity against human 9KB cells

MIC [2]: 0.625 µg/mL (≈ 2.52 µM)
Compound: C=C1C(=O)O[C@@H]2C[C@@]3(C)C[C@@H](O)C[C@H](C)C3=C[C@H]12
Activity [1]: 2 µg/mL | T/C [3]: 123% | Activity [4]: 2 ×10⁻¹ ug/ml
